In patent US8981111B2 (priority 2008, dated 2015):

Test: log P (HPLC/MS data of the preparation examples)
Conditions: HCOOH
For “N-(6-{[({(3-bromo-4-methoxyphenyl)[3-chloro-5-(trifluoromethyl)pyridin-2-yl]methylene}amino)oxy]methyl}pyridin-2-yl)-3-methylbutanamide [Example 444]”, the “log P(HCOOH)” value was 5.03. With “N-{2-[({[(1-methyl-1H-imidazol-2-yl)(phenyl)methylene]amino}-oxy)methyl]pyrimidin-4-yl}cyclopropanecarboxamide [Example 193]” the “log P(HCOOH)” value was 1.50. In the case of “pentyl{2-[({[(1-methyl-1H-imidazol-2-yl)(phenyl)methylene]amino}oxy)-methyl]pyrimidin-4-yl}carbamate [Example 61]”, the “log P(HCOOH)” value is reported as 2.28. In the case of “pentyl{2-[({[(1-methyl-1H-imidazol-5-yl)(phenyl)methylene]amino}oxy)-methyl]pyrimidin-4-yl}carbamate [Example 139]”, the “log P(HCOOH)” value is reported as 2.66.

Same assay, conditions: HCOOH (formic acid)
Molecule `Cn1cncc1C(=NOCc1cccc(N)n1)c1ccsc1` [Example 493, 6-[({[(1-methyl-1H-imidazol-5-yl)(3-thienyl)methylene]amino}oxy)methyl]pyridin-2-amine] has a chromatographic logP of 0.39. With `Cn1cncc1C(=NOCc1cccc(N2C(=O)c3ccccc3C2=O)n1)c1cccs1` [Example 494, 2-{6-[({[(1-methyl-1H-imidazol-5-yl)(2-thienyl)methylene]amino}-oxy)methyl]pyridin-2-yl}-1H-isoindole-1,3(2H)-dione] the chromatographic logP was 1.66. `Cn1cncc1C(=NOCc1csc(N)n1)c1cccs1` [Example 495, 4-[({[(1-methyl-1H-imidazol-5-yl)(2-thienyl)methylene]amino}oxy)methyl]-1,3-thiazol-2-amine] gave a chromatographic logP of 0.22. `Cn1cncc1C(=NOCc1csc(N)n1)c1ccsc1` [Example 496, 4-[({[(1-methyl-1H-imidazol-5-yl)(3-thienyl)methylene]amino}oxy)methyl]-1,3-thiazol-2-amine] showed a chromatographic logP of 0.45. `Cn1ccnc1C(=NO)c1ccccc1` [N-hydroxy-1-(1-methyl-1H-imidazol-2-yl)-1-phenylmethanimine] showed a chromatographic logP of 0.24. For `Cn1cncc1C(=NO)c1cccs1` [N-hydroxy-1-(1-methyl-1H-imidazol-5-yl)-1-(2-thienyl)methanimine], the chromatographic logP was 0.45. `Cn1cncc1C(=NO)c1ccsc1` [N-hydroxy-1-(1-methyl-1H-imidazol-5-yl)-1-(3-thienyl)methanimine] gave a chromatographic logP of 0.21. `Cn1cncc1C(=NO)c1ccccc1` [N-hydroxy-1-(1-methyl-1H-imidazol-5-yl)-1-phenylmethanimine] gave a chromatographic logP of 0.41. For `Cc1nocc1C(=NO)c1cccs1` [N-hydroxy-1-(3-methyl-1,2-oxazol-4-yl)-1-(2-thienyl)methanimine], the chromatographic logP was 1.75. With `CON(C)C(=O)c1cccs1` [N-methoxy-N-methylthiophene-2-carboxamide] the chromatographic logP was 1.44. `CON(C)C(=O)c1ccsc1` [N-methoxy-N-methylthiophene-3-carboxamide] showed a chromatographic logP of 1.3.

Same assay, conditions: HPLC (LC-MS) method [b]: pH 2.7, 0.1% formic acid in water and acetonitrile, linear gradient 10% to 95% acetonitrile; EEC directive 79/831 Annex V.A8
For `Cn1ncnc1C(=NOCc1cccc(NC(=O)C(C)(C)C)n1)c1ncc(C(F)(F)F)cc1Cl` [Example 470], the log p was 3.44^[b]. With `Cn1ncnc1C(=NOCc1cccc(NC(=O)CCc2ccccc2)n1)c1ncc(C(F)(F)F)cc1Cl` [Example 471] the log p was 3.73^[b]. In the case of `Cn1ncnc1C(=NOCc1nccc(N)n1)c1ncc(C(F)(F)F)cc1Cl` [Example 472], the log p is reported as 1.2^[b]. For `Cn1ncnc1C(=NOCc1csc(N)n1)c1ncc(C(F)(F)F)cc1Cl` [Example 473], the log p was 1.56^[b]. In the case of `CCCCCC(=O)Nc1ccnc(CON=C(c2ncc(C(F)(F)F)cc2Cl)c2ncnn2C)n1` [Example 474], the log p is reported as 3.51^[b]. For `CCCCCOC(=O)Nc1ccnc(CON=C(c2ncc(C(F)(F)F)cc2Cl)c2ncnn2C)n1` [Example 475], the log p was 3.8^[b]. For `Cn1ncnc1C(=NOCc1nccc(NC(=O)Cc2ccccc2)n1)c1ncc(C(F)(F)F)cc1Cl` [Example 476], the log p was 3.13^[b]. In the case of `Cn1ncnc1C(=NOCc1nccc(NC(=O)CCc2ccccc2)n1)c1ncc(C(F)(F)F)cc1Cl` [Example 477], the log p is reported as 3.39^[b]. With `CC(C)CC(=O)Nc1ccnc(CON=C(c2ncc(C(F)(F)F)cc2Cl)c2ncnn2C)n1` [Example 478] the log p was 3.06^[b]. With `CCCCCC(=O)Nc1nc(CON=C(c2ncc(C(F)(F)F)cc2Cl)c2ncnn2C)cs1` [Example 479] the log p was 3.6^[b]. With `CCCCCOC(=O)Nc1nc(CON=C(c2ncc(C(F)(F)F)cc2Cl)c2ncnn2C)cs1` [Example 480] the log p was 3.94^[b]. For `Cn1ncnc1C(=NOCc1csc(NC(=O)C(C)(C)C)n1)c1ncc(C(F)(F)F)cc1Cl` [Example 481], the log p was 3.27^[b]. In the case of `Cn1ncnc1C(=NOCc1csc(NC(=O)Cc2ccccc2)n1)c1ncc(C(F)(F)F)cc1Cl` [Example 482], the log p is reported as 3.27^[b]. With `Cn1ncnc1C(=NOCc1csc(NC(=O)CCc2ccccc2)n1)c1ncc(C(F)(F)F)cc1Cl` [Example 483] the log p was 3.51^[b]. For `CC(C)CC(=O)Nc1nc(CON=C(c2ncc(C(F)(F)F)cc2Cl)c2ncnn2C)cs1` [Example 484], the log p was 3.19^[b]. With `Cc1cccnc1C(=NOCc1csc(N)n1)c1cc(C(F)(F)F)ccn1` [Example 486] the log p was 1.57^[b]. With `Cc1cccnc1C(=NOCc1csc(NC(=O)C(C)(C)C)n1)c1cc(C(F)(F)F)ccn1` [Example 487] the log p was 3.44^[b]. For `Cc1cccnc1C(=NOCc1csc(NC(=O)CC(C)C)n1)c1cc(C(F)(F)F)ccn1` [Example 488], the log p was 3.31^[b]. With `CCCCCOC(=O)Nc1nc(CON=C(c2cc(C(F)(F)F)ccn2)c2ncccc2C)cs1` [Example 489] the log p was 4.13^[b]. For `CCCCCC(=O)Nc1nc(CON=C(c2cc(C(F)(F)F)ccn2)c2ncccc2C)cs1` [Example 490], the log p was 3.76^[b]. For “N-(6-{[({(3-bromo-4-methoxyphenyl)[3-chloro-5-(trifluoromethyl)pyridin-2-yl]methylene}amino)oxy]methyl}pyridin-2-yl)-3-methylbutanamide [Example 444]”, the log p was 1.69^[b].

Same assay, conditions: HPLC method [a]: pH 2.3, 0.1% phosphoric acid and acetonitrile as eluent; EEC directive 79/831 Annex V.A8
For `COC(=O)c1ccc(C(F)(F)F)nc1CON=C(c1ccccn1)c1ccccn1` [Example 485], the log p was 2.48^[a].

Same assay, conditions: LC-MS, method [b]: pH 2.7 with 0.1% formic acid in water and acetonitrile, linear gradient 10% to 95% acetonitrile
For “N-(cyclopropylcarbonyl)-N-(2-{[({[2-(cyclopropylcarbonyl)-1-methyl-1H-imidazol-5-yl](phenyl)methylene}amino)oxy]methyl}pyrimidin-4-yl)cyclopropanecarboxamide [Example 312]”, the log p was 2.22^[b]. In the case of “pentyl{2-[({[(1-methyl-1H-imidazol-2-yl)(phenyl)methylene]amino}oxy)-methyl]pyrimidin-4-yl}carbamate [Example 61]”, the log p is reported as 1.92^[b].

Same assay, conditions: method [b]: LC-MS at pH 2.7, 0.1% formic acid in water / acetonitrile, linear gradient 10% to 95% acetonitrile
With “N-{2-[({[(1-methyl-1H-imidazol-2-yl)(phenyl)methylene]amino}-oxy)methyl]pyrimidin-4-yl}cyclopropanecarboxamide [Example 193]” the log p was 1.54^[b]. In the case of “pentyl{2-[({[(1-methyl-1H-imidazol-5-yl)(phenyl)methylene]amino}oxy)-methyl]pyrimidin-4-yl}carbamate [Example 139]”, the log p is reported as 3.19^[b].
